This passage reports IC50 results from US12421254B2, “KRAS modulators and uses thereof” (Quanta Therapeutics, Inc., priority 2023, dated 2025).

In assay [1] the target is GST-tagged KRAS-G12V (2-169) (Homo sapiens, UniProt P01116, G12V). In words: Nucleotide exchange assay (NEA), SOS-mediated, HTRF, KRAS G12V. The settings on record: Table 4; IC50 extracted at 90 min; 80 nM SOS. Format: biochemical. An outline of the steps:
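GST-KRAS-G12V (2-169), 0.25 nM, pre-incubated 1 h at RT with compound, then SOS1cat (564-1049) 80 nM and GTP-DY-647P1 150 nM added in HEPES pH 7.3 buffer with MgCl2 and DTT. HTRF via anti-GST Tb cryptate read over 90 min; IC50 from 4-parameter fit at 90 min, blanked to no-SOS reactions.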
(TR-FRET usually uses a lanthanide donor and a delayed reading to cut background.)

Assay [2] deals with GST-tagged KRAS-G12D (2-169) (Homo sapiens, UniProt P01116, G12D). As to the kind of experiment: Nucleotide exchange assay (NEA), SOS-mediated, HTRF, KRAS G12D. The following applies: IC50 extracted at 30 min, 20 nM SOScat. The assay is classed as biochemical. An outline of the steps:
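Compound preincubated 1 h at RT with 0.25 nM GST-KRAS-G12D (2-169) and anti-GST Tb donor, then 20 nM SOS1cat (564-1049) and 150 nM GTP-DY-647P1 added; pH 7.3 HEPES buffer with MgCl2 and DTT. HTRF monitored at RT; % inhibition versus DMSO and no-SOS blank, 4-parameter IC50 taken at 30 min.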

Another assay concerns the target T1, KRAS G12V/RAF1 (Homo sapiens, UniProt P01116, G12V).
T1 construct: KRAS (1-169) proteins were expressed in BL21 (DE3)-CodonPlus E. coli; His6-MBP (N, cleaved yes)
In words: Protein-protein interaction (PPI) HTRF assay KRAS G12V/RAF1. Format: binding. The following applies: Table 3.

In the next assay the target is T2, KRAS G12D/RAF1 (Homo sapiens, UniProt P01116, G12D).
T2 construct: KRAS (1-169) proteins were expressed in BL21 (DE3)-CodonPlus E. coli; His6-MBP (N, cleaved yes)
As to the kind of experiment: Protein-protein interaction (PPI) HTRF assay KRAS G12D/RAF1. The assay is classed as binding. The following applies: Table 2.

The target in the next assay is T3, NRAS/RAF1 (Homo sapiens, UniProt P01111).
T3 construct: (1-169); His6-SUMO (N, cleaved yes)
In words: Protein-protein interaction (PPI) HTRF assay w.t. NRAS/RAF1. Format: binding. The following applies: Table 3; wt NRAS/RAF1. On the procedure:
When RAS proteins are in the active GTP-bound conformation, they bind the effector protein RAF1 at the N-terminus Ras-binding domain (RBD, residues 52-131) (Tran, et al., 2021). Homogenous time resolved fluorescence (HTRF) was used to monitor the interaction between wt or mutant KRAS and RAF1 or wt NRAS and RAF1. Compounds were assayed in the presence of KRAS G12D/V and RAF1 versus wt KRAS to assess activity against mutant and w.t. KRAS. Similarly, compounds were then assayed in the presence of w.t. NRAS and RAF1 to assess RAS isoform selectivity. In all assay formats, His-tagged RAF1 protein was incubated with the HTRF donor, anti-6His Tb Cryptate gold (Cisbio 61DB10RDF), and biotinylated RAS proteins were incubated with the HTRF acceptor, streptavidin-d2 (CisBio 610SADLA). The intensity of the fluorescence signal emitted is proportional to binding between the two proteins. The donor solution was prepared by mixing 16 nM His-tagged RAF1 in protein dilution buffer with 1:100 anti-6His Tb cryptate in PPI-Terbium detection buffer. 16 nM biotinylated RAS protein was diluted into protein dilution buffer (50 mM Tris-HCl pH 7.5, 150 mM NaCl, 0.1 mM MgCl2, 1 mM TCEP, 0.005% Tween20) and mixed with 1:2000 Streptavidin-d2 diluted in PPI-Terbium detection buffer (CisBio 61DB10RDF). 50× compound in DMSO was mixed with 16 nM KRAS-acceptor solution and incubated for 30 minutes at room temperature. After compound pre-incubation with KRAS, the RAF1 donor solution was added to the KRAS-acceptor solution and incubated for 1 hour at room temperature. The fluorescence signal emitted was monitored at 665 nm and 615 nm using an Envision multimode plate reader. The HTRF ratio (665/615) was calculated and normalized to 0% inhibition in the absence of compound and 100% inhibition in the presence of untagged RAF1 protein. PPI KRAS G12D/RAF1, KRAS G12V/RAF1, w.t. KRAS/RAF1 and NRAS/RAF1 IC50 (uM) values of selected compounds are depicted in Table 3 and Table 4 with compounds having a value <0.1 uM as ++++; ≥0.1 uM to 1 uM as +++; ≥1 uM to 10 uM as ++; ≥10 uM to 100 uM as +; and ≥100 uM as NA.

Where [3] appears, read: Table 2, read-out: NEA-G12D (uM) IC50.
The mark [4] stands for this setting: Table 4, read-out: NEA G12D IC50.

The structures appear in SMILES notation. Read-outs that look alike come from different tables or passages of the source.

GST-tagged KRAS-G12D (2-169), sequence (P01116 2-169 isoform P01116-2 G12D): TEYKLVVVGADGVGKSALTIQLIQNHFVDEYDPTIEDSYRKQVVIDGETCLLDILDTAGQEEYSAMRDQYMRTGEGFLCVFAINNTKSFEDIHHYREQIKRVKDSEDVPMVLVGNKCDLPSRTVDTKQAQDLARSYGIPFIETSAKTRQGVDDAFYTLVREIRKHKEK
GST-tagged KRAS-G12V (2-169), sequence (P01116 2-169 isoform P01116-2 G12V): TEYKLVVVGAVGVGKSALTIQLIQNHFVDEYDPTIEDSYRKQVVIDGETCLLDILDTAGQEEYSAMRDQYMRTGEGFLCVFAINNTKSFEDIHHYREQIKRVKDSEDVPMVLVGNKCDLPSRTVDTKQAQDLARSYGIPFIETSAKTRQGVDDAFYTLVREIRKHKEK
T2 sequence (P01116 with tags, fused parts or gaps isoform P01116-2 G12D): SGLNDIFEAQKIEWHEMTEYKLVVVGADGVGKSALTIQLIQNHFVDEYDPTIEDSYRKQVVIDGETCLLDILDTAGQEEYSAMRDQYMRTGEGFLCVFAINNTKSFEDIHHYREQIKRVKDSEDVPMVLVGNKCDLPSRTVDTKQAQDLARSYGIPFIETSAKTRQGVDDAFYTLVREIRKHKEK
T1 sequence (P01116 with tags, fused parts or gaps isoform P01116-2 G12V): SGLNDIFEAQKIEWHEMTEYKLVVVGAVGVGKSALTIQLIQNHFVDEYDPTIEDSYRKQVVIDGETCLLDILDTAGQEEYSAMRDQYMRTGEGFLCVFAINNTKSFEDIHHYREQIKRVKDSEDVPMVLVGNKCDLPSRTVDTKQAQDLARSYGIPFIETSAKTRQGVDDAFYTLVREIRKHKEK
T3 sequence (P01111 with tags, fused parts or gaps): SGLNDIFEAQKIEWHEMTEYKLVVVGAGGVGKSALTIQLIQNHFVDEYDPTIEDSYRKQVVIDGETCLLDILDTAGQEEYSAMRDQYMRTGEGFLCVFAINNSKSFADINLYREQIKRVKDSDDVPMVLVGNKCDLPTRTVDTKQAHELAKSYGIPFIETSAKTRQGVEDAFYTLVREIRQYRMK

One may read the IC50 as the midpoint of a concentration-inhibition curve. For `N#Cc1c(N)sc2c1C1(CC2)CN(c2nc(OC[C@@]34CCCN3C[C@H](F)C4)nc(N3CCCC(C#N)C3)n2)C1` (stereo partly drawn) [Compound 13, 2-amino-1′-[4-(3-cyano-1-piperidyl)-6-[[(2R,8S)-2-fluoro-1,2,3,5,6,7-hexahydropyrrolizin-8-yl]methoxy]-1,3,5-triazin-2-yl]spiro[5,6-dihydrocyclopenta[b]thiophene-4,3′-azetidine]-3-carbonitrile], the IC50 is 10 to 100 nM in assay [1]; 0.01 to 0.1 µM in assay [2] (setting [3]); 0.01 to 0.1 µM in assay [2] (setting [4]); 1 to 10 µM on KRAS G12V/RAF1; 1 to 10 µM on KRAS G12D/RAF1.

On to `C[C@@]1(O)CCCN(c2nc(OC[C@@]34CCCN3C[C@H](F)C4)nc(N3CC4(CCc5sc(N)c(C#N)c54)C3)n2)C1` [Compound 10, 2-amino-1′-[4-[[(2R,8S)-2-fluoro-1,2,3,5,6,7-hexahydropyrrolizin-8-yl]methoxy]-6-[(3R)-3-hydroxy-3-methyl-1-piperidyl]-1,3,5-triazin-2-yl]spiro[5,6-dihydrocyclopenta[b]thiophene-4,3′-azetidine]-3-carbonitrile], for which the IC50 against NRAS/RAF1 was greater than 100 µM; in assay [1] it was less than 10 nM; in assay [2] (setting [3]) it was less than 0.01 µM; in assay [2] (setting [4]) it was less than 0.01 µM; against KRAS G12V/RAF1 it was 1 to 10 µM; against KRAS G12D/RAF1, 1 to 10 µM.

With `N#Cc1c(N)sc2c1C1(CC2)CN(c2nc(OCC34CCCN3CC(F)C4)nc(N3CC4CCC(C3)N4)n2)C1` [Compound 1, 2-amino-1′-[4-(3,8-diazabicyclo[3.2.1]octan-3-yl)-6-[[(2R,8S)-2-fluoro-1,2,3,5,6,7-hexahydropyrrolizin-8-yl]methoxy]-1,3,5-triazin-2-yl]spiro[5,6-dihydrocyclopenta[b]thiophene-4,3′-azetidine]-3-carbonitrile], the IC50 is greater than 100 µM against NRAS/RAF1; 10 to 100 nM in assay [1]; less than 0.01 µM in assay [2] (setting [3]); less than 0.01 µM in assay [2] (setting [4]); 0.1 to 1 µM on KRAS G12V/RAF1; 0.1 to 1 µM at KRAS G12D/RAF1.

Turning to `N#Cc1c(N)sc2c1C1(CCC2)CN(c2nc(OCC3(CN4CCOCC4)CC3)nc(N3C[C@H]4CC[C@@H](C3)N4)n2)C1` [Compound 3, 2-amino-1′-[4-[(1R,5S)-3,8-diazabicyclo[3.2.1]octan-3-yl]-6-[[1-(morpholinomethyl)cyclopropyl]methoxy]-1,3,5-triazin-2-yl]spiro[6,7-dihydro-5H-benzothiophene-4,3′-azetidine]-3-carbonitrile], the IC50 on NRAS/RAF1 is greater than 100 µM; in assay [1], 100 to 1000 nM; in assay [2] (setting [3]) it was less than 0.01 µM; in assay [2] (setting [4]) it was less than 0.01 µM; against KRAS G12V/RAF1, 10 to 100 µM; against KRAS G12D/RAF1, 1 to 10 µM.

For `N#Cc1c(N)sc2c1C1(CC2)CN(c2nc(OCC3(CN4CCOCC4)CC3)nc(N3CCCC4(C3)NC(=O)NC4=O)n2)C1` (centres unmarked) [Compound 7, 2-amino-1′-[4-(2,4-dioxo-1,3,9-triazaspiro[4.5]decan-9-yl)-6-[[1-(morpholinomethyl)cyclopropyl]methoxy]-1,3,5-triazin-2-yl]spiro[5,6-dihydrocyclopenta[b]thiophene-4,3′-azetidine]-3-carbonitrile], the IC50 at NRAS/RAF1 was greater than 100 µM; in assay [1], less than 10 nM; in assay [2] (setting [3]), less than 0.01 µM; in assay [2] (setting [4]), less than 0.01 µM; against KRAS G12V/RAF1, 0.1 to 1 µM; on KRAS G12D/RAF1, 0.1 to 1 µM.

With `N#Cc1c(N)sc2c1C1(CC2)CN(c2nc(OCC3(CN4CCOCC4)CC3)nc(N3C[C@H]4CC[C@@H](C3)N4)n2)C1` [Compound 2, 2-amino-1′-[4-[[1-(morpholinomethyl)cyclopropyl]methoxy]-6-[(1R,5S)-3,8-diazabicyclo[3.2.1]octan-3-yl]-1,3,5-triazin-2-yl]spiro[5,6-dihydrocyclopenta[b]thiophene-4,3′-azetidine]-3-carbonitrile], the IC50 was greater than 100 µM against NRAS/RAF1; 100 to 1000 nM in assay [1]; less than 0.01 µM in assay [2] (setting [3]); less than 0.01 µM in assay [2] (setting [4]); 1 to 10 µM against KRAS G12V/RAF1; 1 to 10 µM on KRAS G12D/RAF1.
